Experimental data from patent US20210253511A1, “COMPOUNDS AND USES FOR THE TREATMENT AND PREVENTION OF DISEASES AND CONDITIONS ASSOCIATE WITH OR AGGREVATED BY IMPARED MITOPHAGY” (Yissum Research Development Company of The Hebrew …, priority 2018, published 2021).

How the values were obtained:
[1] = test system: mitophagy in C. elegans muscles; experiment: Mitophagy imaging with Mito-Rosella sensor; type: in vivo; details: 1 mM; L4 Rosella worms; 21° C.
Source text: FIGS. 8A-8F. (FIG. 8A) is a schematic illustration of the Mito-Rosella sensor function. The Mito-Rosella sensor contains an N-terminal mitochondrial targeting signal, a pH-stable red fluorescent protein and a C-terminal pH-sensitive green fluorescent protein. In non-acidic environment the green to red fluorescent ratio is 0.6-0.8. However, in the autolysosome, where the pH is low, the green fluorescent is quenched and the green to red ratio is decreased to 0.2-0.5. By measuring the mitochondria red and green fluorescence, it was possible to monitor mitophagy in live worms. […] A bar graph presenting the results of mitophagy imaging experiments. L4 larval worms were treated with either 8 mM paraquat or 1 mM 1,8-Diaminooctane for 16 h, at 21° C. Control worms were treatment with similar volume of distilled water and incubated under similar conditions. Asterisks indicate significance for comparisons with control worms. […]
The Mito-Rosella sensor is composed of an N-terminal mitochondrial targeting sequence followed by a pH-insensitive red fluorescent protein (DsRed.T3) and a pH-sensitive green fluorescent protein (pHluorin) (FIG. 8A). In intact mitochondria the green to red fluorescence ratio is high (between 0.6-0.8). However, upon acidification in autolysosome (where mitochondria are degraded) the green fluorescence is quenched and thus the ration is decreased to 0.2-0.5.

[2] = test system: pink-1(tm1779) mutants / pink-1 RNAi worms; experiment: Paraquat survival assay in pink-1 deletion mutant or RNAi knockdown worms; type: in vivo, C. elegans
Method: FIGS. 9A-9D show the protective activity of 1,8-Diaminooctane is mitophagy-dependent. (FIG. 9A) is a schematic illustration of the mitophagy pathway in C. elegans. Survival curves presenting the effect of dct-1 and pink-1 deletion mutations (FIG. 9B, FIG. 9C) or RNAi knockdowns (FIG. 9D) on worms' viability in 200 mM PQ at indicated time points. Statistical analysis on PQ survival curves were performed using the log-rank (Mantel-Cox) test with Prism 7 software. The plots represent the average of six independent experiments. The minimum number of worms examined for each experimental condition is 133.
In the first one, the effect of 1,8-Diaminooctane on the survival of dct-1 and pink-1 mutants in PQ was investigated. DCT-1 is an orthologue of the mammalian NIX/BNIP3L and BNIP3 that act as mitophagy receptors, and PINK-1 is a mitochondrial phosphatase and tensin (PTEN)-induced kinase 1 which has a critical function in mitophagy (see K. Palikaras, E. Lionaki, N. Tavernarakis, Coordination of mitophagy and mitochondrial biogenesis during ageing in C. elegans, Nature 521 (7553) (2015) 525-8; and FIG. 3A). It was hypothesized that if mitophagy is essential for the protective effect of 1,8-Diaminooctane, then dct-1 and pink-1 mutants will become sensitive to PQ following treatment. […] The second experiment that was performed was an RNAi experiment. Here, dct-1 and pink-1 were selectively knocked down using RNAi. The RNAi results recapitulated the one of the mutant experiments ([…]). […] Importantly, the RNAi phenotype was less strong compared to the one observed with the deletion mutants. […] The difference between the results could be due to incomplete suppression of dct-1 and pink-1 in the RNAi treated worms. Together, our results verify that 1,8-Diaminooctane protects against oxidative stress by activating mitophagy.

C. elegans = experiment: Lifespan assay; type: in vivo; details: 4 mM from L1; 21° C.; control 12 days; p=0.0063
Method: FIG. 10. […] Survival curves comparing the lifespans of worm growing on plates containing 0.25 mM and 4 mM 1,8-Diaminooctane (or vehicle as a control). The curves represent data from at least three independent experiments in which the lifespans of at least 145 worms were measured (for each condition). The lifespan medians and p values are indicated in the parentheses near the treatment legend. All lifespan assays were conducted at 21° C. and started with synchronized L1 larvae. Statistical analysis on lifespan survival curves was performed using the log-rank (Mantel-Cox).
Lifespan assays were performed as described in R. Abergel, L. Livshits, M. Shaked, A. K. Chatterjee, E. Gross, Synergism between soluble guanylate cyclase signaling and neuropeptides extends lifespan in the nematode Caenorhabditis elegans, Aging cell 16 (2) (2017) 401-413. In brief, 12 worms per plate were used. […] Worm's survival was scored every two days for live, dead (when it no longer responded to touch), and missing worms. The worms were transferred into fresh plates every 2 days to avoid progeny contamination and every 4 days when worms are in post-fertile stage, until the end of the experiment. Worms were scored as censored when they display internal progeny hatching (worm bagging), rupture, burrow in the agar or crawl off the plates, however, include them in the lifespan data analysis as censored. […]

With `NCCCCCCCCN` [1,8-Diaminooctane] the “mitophagy response (Mito-Rosella green to red fluorescence ratio)” value [1] was “strong mitophagy response”, the “survival in PQ of treated worms, RNAi against pink-1” value ([2]; compared to control worms that did not get the treatment, p<0.0001) was “significantly higher than control worms” and the “resistance to PQ after treatment, pink-1(tm1779) mutants” value ([2]; compared to treated wild-type worms, 200 mM PQ, p<0.0001) was “significantly less resistant to PQ”. The “protective effect in PQ, RNAi against pink-1” value ([2]; compared to worms treated with mock RNAi (empty vector)) was “significantly lesser” and the median lifespan (C. elegans) was 15 days.
